Data reported in patent US5861395A, “Compounds useful for inhibition of farnesyl proteins transferase” (Schering Corporation, priority 1997, dated 1999).
Several values for one entry are separate records, joined by “and”; a condition that tells them apart may be missing. Identical values can stand only once. Like-named read-outs stand apart in the source and are kept apart here.

Columns and labels:
[1] = molecular target: farnesyl protein transferase (H-ras) (Homo sapiens, UniProt P49354+P49356); test: FPT IC50 (H-ras), in vitro enzyme assay; format: biochemical
Method: (§1) FPT IC50 (inhibition of farnesyl protein transferase, in vitro enzyme assay), GGPT IC50 (inhibition of geranylgeranyl protein transferase, in vitro enzyme assay) and COS Cell IC50 (Cell-Based Assay) were determined following the assay procedures described in WO 95/10516, published Apr. 20, 1995. Cell Mat Assay, and anti-tumor activity (in vivo anti-tumor studies) could be determined by the assay procedures described in WO 95/10516. The disclosure of WO 95/10516 is incorporated herein by reference thereto.

[2] = molecular target: farnesyl protein transferase (K-ras) (Homo sapiens, UniProt P49354+P49356); test: FPT IC50 (K-ras), in vitro enzyme assay; format: biochemical
Method: as §1

[3] = system: COS Cell; test: COS Cell IC50 (Cell-Based Assay)
Method: as §1

[4] = molecular target: farnesyl protein transferase; test: FPT IC50 (inhibition of farnesyl protein transferase, in vitro enzyme assay); format: biochemical
Description: In Table 2 "Ex. No." stands for "Example Number". In Table 2, FPT IC50 results are less indicated otherwise.

[5] = system: Human tumor cells; test: Soft Agar Assay (anchorage-independent growth); format: cell-based; details: Homo sapiens, Table 4; colonies after 10-16 days at 37° C.
Method: Soft Agar Assay: Anchorage-independent growth is a characteristic of tumorigenic cell lines. Human tumor cells are suspended in growth medium containing 0.3% agarose and an indicated concentration of a farnesyl transferase inhibitor. The solution is overlayed onto growth medium solidified with 0.6% agarose containing the same concentration of farnesyl transferase inhibitor as the top layer. After the top layer is solidified, plates are incubated for 10-16 days at 37° C. under 5% CO2 to allow colony outgrowth. […] Colonies can be counted and the IC50 's can be determined.

[6] = molecular target: T1, geranylgeranyl protein transferase (Rattus norvegicus, UniProt P53610+Q04631); test: GGPT IC50 (inhibition of geranylgeranyl protein transferase, in vitro enzyme assay); format: biochemical
T1 construct: from tissue; host or cells: rat brain (own knowledge of the cited WO 95/10516)
Method: as §1

| Structure (SMILES) | IC50 ([3]; Table 4) | IC50 ([4]; Table 3) | IC50 [5] | other results |
| --- | --- | --- | --- | --- |
| CC(=O)OC[C@H]1O[C@@H](NC(=S)N2CCC(CC(=O)N3CCC([C@H]4c5ncc(Br)cc5CCc5cc(Cl)cc(Br)c54)CC3)CC2)[C@H](OC(C)=O)[C@@H](OC(C)=O)[C@@H]1OC(C)=O [Compound 4.0-B] | 1000 nM | – | – | IC50 [1]: 12 nM; IC50 [2]: 29 nM |
| O=CN1CCC(CC(=O)N2CCC([C@H]3c4ncc(Br)cc4CCc4cc(Cl)cc(Br)c43)CC2)CC1 [Compound 5.0-B] | 8 nM | 3.7 nM | – | IC50 [2]: 16 nM |
| O=C(CC1CCN(C(=O)c2ncccc2O)CC1)N1CCC([C@H]2c3ncc(Br)cc3CCc3cc(Cl)cc(Br)c32)CC1 [Compound 83.0-B] | 12 nM | 3.2 nM | 500 nM | – |
| O=C(CC1CCN(C(=O)c2ccoc2)CC1)N1CCC([C@H]2c3ncc(Br)cc3CCc3cc(Cl)cc(Br)c32)CC1 [Compound 84.0-B] | 11 nM | 8.5 nM | 100 nM | – |
| O=C(CC1CCN(C(=O)c2ccc(O)nc2)CC1)N1CCC([C@@H]2c3c(Br)cc(Cl)cc3CCc3cc(Br)c[n+]([O-])c32)CC1 [Compound 91.0-B] | 500 nM | 2.5 nM | > 500 nM | – |
| O=C(NC(=O)C(Cl)(Cl)Cl)O[C@H]1CC[C@@H](C(=O)N2CCC(CC(=O)N3CCC([C@H]4c5ncc(Br)cc5CCc5cc(Cl)cc(Br)c54)CC3)CC2)CC1 [Compound 93.0-B] | 30 nM | 5.7 nM | 410 nM | – |
| NC(=O)O[C@H]1CC[C@@H](C(=O)N2CCC(CC(=O)N3CCC([C@H]4c5ncc(Br)cc5CCc5cc(Cl)cc(Br)c54)CC3)CC2)CC1 [Compound 94.0-B] | 25 nM | 4 nM | 210 nM | – |
| N#CN1CCC(CC(=O)N2CCC([C@H]3c4ncc(Br)cc4CCc4cc(Cl)cc(Br)c43)CC2)CC1 [Compound 98.0-B] | 12 nM | – | 100 nM | IC50 [1]: 2.3 nM and 2.4 nM; IC50 [2]: 17 nM |
| O=C(CC1CCN(C(=O)N2CCOCC2)CC1)N1CCC([C@H]2c3ncc(Br)cc3CCc3cc(Cl)cc(Br)c32)CC1 [Compound 100.0-B] | < 10 nM | – | 380 nM | IC50 [1]: 5.5 nM |
| N=C(Oc1ccccc1)N1CCC(CC(=O)N2CCN(C3c4ccc(Cl)cc4CCc4cc(Br)cnc43)CC2)CC1 (centres unmarked) [Example 3, PHENYL 4-[2-[4-(3-BROMO-8-CHLORO-6,11-DIHYDRO-5 H-BENZO[5,6]CYCLOHEPTA1,2-b]PYRIDIN-11-YL)-1-PIPERAZINYL]-2-OXOETHYL-1-PIPERIDINECARBOXIMIDATE] | – | – | – | IC50 [1]: 290 nM |
| N=C(Oc1ccccc1)N1CCC(CC(=O)N2CCC([C@H]3c4ncc(Br)cc4CCc4cc(Cl)cc(Br)c43)CC2)CC1 [Example 25] | 24 nM | – | 200 nM | IC50 [2]: 46 nM; IC50 ([4]; Table 2): 8.8 nM; IC50 ([3]; Table 2): 24 nM |
| N=C(NCc1cccnc1)N1CCC(CC(=O)N2CCC(C3c4ccc(Cl)c(Br)c4CCc4cc(Br)cnc43)CC2)CC1 (centres unmarked) [Example 29] | – | – | – | IC50 [6]: 7500 nM; IC50 ([2]; Table 2): 782 nM; IC50 ([4]; Table 2): 11 nM; IC50 ([3]; Table 2): > 1000 nM |
| N#CN1CCC(CC(=O)N2CCC(C3c4ccc(Cl)c(Br)c4CCc4cc(Br)cnc43)CC2)CC1 (centres unmarked) [Example 30] | – | – | – | IC50 ([2]; Table 2): 38.7 nM; IC50 ([4]; Table 2): 7 nM; IC50 ([3]; Table 2): 460 nM |
| CCn1cccc1C(=O)N1CCC(CC(=O)N2CCC([C@H]3c4ncc(Br)cc4CCc4cc(Cl)cc(Br)c43)CC2)CC1 [Example 54] | 40 nM | 7.8 nM | > 500 nM | – |
